Reference: EP4790063A1, “PEPTIDE HAVING ACTIVITY FOR […] OF MARINE FOULING” (National University Corporation Hokkaido University, priority 2023, dated 2025)
Where two headings read alike, the source gives them in different places. Non-standard residues stand in square brackets, D forms with d. Residues, ends and D or L forms follow the SMILES beside them. *: point of attachment. d(β3hL) = CC(C)C[C@@H](N)CC(=O)O; hPhe = N[C@@H](CCc1ccccc1)C(=O)O; Boc = CC(C)(C)OC(=O)*; OBn = c1ccc(CO*)cc1

Columns and labels:
[1] = system: cypris larvae of Striped Barnacle; test: Evaluation of antifouling activities and toxicity against the cypris larvae of Striped Barnacle (24-well plate, adhesion and mortality after 48 h); type: in vivo, Amphibalanus amphitrite
Method: (§1) After solutions of about 2 mL of the test compounds (tripeptides 2 to 10 and dipeptide 11) in ethanol were dispensed into each well of the 24-well polystyrene multi-well plate (3.2 mL/well, well diameter 15.5 mm, well height 17.6 mm, manufactured by Corning), the multi-well plate was air-dried to evaporate the ethanol.
(§2) The test compounds were aliquoted to achieve final concentrations of 0.03, 0.1, 0.3, 1, 3, and 10 µg/mL.
(§3) Subsequently, six individuals of the cypris larvae of Striped Barnacle (hereinafter simply referred to as "barnacle larvae") were transplanted into each well along with 2 mL of pre-filtered natural seawater. The multi-well plate was left standing in an incubator at 25°C, and the barnacle larvae were allowed to grow for two days at 25°C.
In the above procedure, a test for the control group was conducted by dispensing an ethanol solution without any test compound. The natural seawater used in the above test was prepared by diluting the natural seawater collected from the coastal area near Onjuku, Chiba Prefecture (salt concentration: 36 g/kg) with distilled water to adjust a salt concentration of 32 g/kg.
In the test group, the control group, and the comparison group, the tests were conducted in four times (four wells) for one concentration of each test compounds.
Forty-eight hours after the test started, the number of adhered individuals and the number of dead individuals of the barnacle larvae in each well were counted under a stereomicroscope. The adhesion rate (%) and mortality rate (%) of the barnacle larvae in each well were calculated, respectively. […] Similarly, for each test compound, a dose-mortality response curve was created to determine the half-maximal lethal concentration (48h LC50) that causes 50% mortality in the barnacle larvae. As a reference, the value of Boc-3 obtained from non-Patent literature 8 is also described.
In particular, the lower the settlement rate, the stronger the antifouling effect.

[2] = system: cypris larvae of Striped Barnacle
Method: as §1, §2, §3
In the above procedure, a test for the control group was conducted by dispensing an ethanol solution without any test compound. […]
Forty-eight hours after the test started, the number of adhered individuals and the number of dead individuals of the barnacle larvae in each well were counted under a stereomicroscope. The adhesion rate (%) and mortality rate (%) of the barnacle larvae in each well were calculated, respectively. […]

[3] = system: juvenile shellfish of Mediterranean mussel
Method: The sample was dissolved in ethanol to adjust to a concentration of 1 mg/mL. Thirty and 100 µL (30 and 100 µg) of the sample solutions were mixed with the solvent, and the mixtures were brought to a total volume of 500 µL. These mixtures were spread on the bottom surface of the glass beaker of the test container, and the solvent was volatilized by shaking them overnight.
A volume of 10 mL of the test seawater was added to the glass beakers of the test containers. The tests were initiated by introducing twelve test individuals into the test seawater in each beaker. The tests ended after three days, and the observation was conducted.
In Table 2, the terms "bottom surface-adhered individuals" and "wall surface-adhered individuals" refer to individuals that are adhered to the bottom surface and wall surface of the beaker, respectively; the term "bottom surface-crawling individuals" refers to individuals that move along the bottom surface without adhering; the term "overturned individuals or closed shell individuals (unadhered)" refers to individuals that are either overturned or in a closed shell without adhering to the bottom surface; and the term "number of byssal threads on the bottom surface" refers to the number of foot threads that are fixed to the bottom surface. In particular, the greater the reduction in the number of byssal threads, the stronger the effect of adhesion prevention.

[4] = system: juvenile shellfish of Mediterranean mussel; test: Evaluation of the antifouling activity and toxicity against the juvenile shellfish of Mediterranean mussel (coated glass beaker, 3 days); type: in vivo, Mytilus galloprovincialis; settings: for bottom surface-adhered individuals % / bottom surface-crawling individuals % / overturned individuals or closed shell individuals (unadhered) % / wall surface-adhered individuals % / number of byssal threads on the bottom surface / bottom surface-adhered individuals No. / bottom surface-crawling individuals No. / overturned individuals or closed shell individuals (unadhered) No. / wall surface-adhered individuals No.: three days; for bottom surface-adhered individuals No. / bottom surface-crawling individuals No. / overturned individuals or closed shell individuals (unadhered) No. / wall surface-adhered individuals No.: twelve individuals
Method: The sample was dissolved in ethanol to adjust to a concentration of 1 mg/mL. Thirty and 100 µL (30 and 100 µg) of the sample solutions were mixed with the solvent, and the mixtures were brought to a total volume of 500 µL. These mixtures were spread on the bottom surface of the glass beaker of the test container, and the solvent was volatilized by shaking them overnight. As a result, the samples to be evaluated were coated only on the bottom surface of the glass beaker.

[5] = system: cypris larvae of the striped barnacle; settings: Non-Patent Documents 5 and 7, cited from earlier work
[6] = system: NCI-H460 (human lung cancer cell line); settings: Non-Patent Document 4; cited from earlier work
[7] = system: KM20L2 (human colon cancer cell line); settings: Non-Patent Document 4; cited from earlier work
[8] = system: SF-295 (human glioblastoma cell line); settings: Non-Patent Document 4; cited from earlier work
[9] = system: cypris larvae of Striped Barnacle; settings: Reference value, see Table 1 in non-Patent literature 8; cited from earlier work
[10] = Table 4 summary of results from Test Examples 1 to 3 (rounded)
[11] = Test Example 1, concentration causing 50% mortality in barnacle larvae, 48 h, 25°C, tested 0.03-10 µg/mL
[12] = Test Example 1, concentration that prevents adhesion of barnacle larvae by 50%, 48 h, 25°C, tested 0.03-10 µg/mL
[13] = Test Example 3, same manner as Test Example 1
[14] = 3 µg/mL (30 µg), twelve individuals, three days
[15] = juvenile Mediterranean mussel, 3.0 µg/mL and 10 µg/mL

## CCOC(=O)[C@H](C)NC(=O)[C@@H]1CCCN1C(=O)[C@H](Cc1ccccc1)NC(=O)OC(C)(C)C [tripeptide 2] (Boc-Phe-Pro-Ala-OEt)
[1]; [10]
  Antifouling activity 48h EC50: >10 mg/L
[1]; [11]
  Toxicity 48h LC50: >10 mg/L
[1]; [12]
  Antifouling activity 48h EC50: >10 mg/L

## O=S(=O)([O-])[O-].[Cu+2] [Copper sulfate]
[2]; [12]
  Antifouling activity 48h EC50: 0.41 mg/L
[2]; [13]
  Antifouling activity 48h EC50: 0.3 mg/L
[3]; 3 µg/mL (30 µg), three days
  bottom surface-adhered individuals %: 0.0%
  bottom surface-crawling individuals %: 0.0%
  overturned individuals or closed shell individuals (unadhered) %: 100.0%
  wall surface-adhered individuals %: 0.0%
[3]; 3 µg/mL (30 µg), three days, control group 118
  number of byssal threads on the bottom surface: 2
[3]; [14]
  bottom surface-adhered individuals No.: 0
  bottom surface-crawling individuals No.: 0
  overturned individuals or closed shell individuals (unadhered) No.: 12
  wall surface-adhered individuals No.: 0
[3]; [15]
  antifouling effect (overall determination in words): high

## CCOC(=O)[C@H](CC(C)C)NC(=O)[C@@H]1CCCN1C(=O)[C@H](Cc1ccccc1)NC(=O)OC(C)(C)C [tripeptide 3] (Boc-Phe-Pro-Leu-OEt)
[1]; [10]
  Antifouling activity 48h EC50: >10 mg/L

## CC(C)C(NC(=O)[C@@H]1CCCN1C(=O)[C@H](Cc1ccccc1)NC(=O)OC(C)(C)C)C(C)C(=O)O (some centres unmarked) [tripeptide 7]
[1]; [10]
  Antifouling activity 48h EC50: >10 mg/L
[1]; [11]
  Toxicity 48h LC50: >10 mg/L
[1]; [12]
  Antifouling activity 48h EC50: >10 mg/L

## CC(C)C[C@H](CC(=O)OCc1ccccc1)NC(=O)[C@@H]1CCCN1C(=O)[C@H](CCc1ccccc1)NC(=O)OC(C)(C)C [tripeptide 12] (Boc-[hPhe]-Pro-[d(β3hL)]-OBn)
[1]; [10]
  Antifouling activity 48h EC50: 0.5 mg/L
[1]; [13]
  Antifouling activity 48h EC50: 0.49 mg/L
  Toxicity 48h LC50: >10 mg/L

## Dolastatin 16 [reference compound]
[4]; 3 µg/mL (30 µg)
  bottom surface-adhered individuals %: 75.0%
  bottom surface-crawling individuals %: 0.0%
  overturned individuals or closed shell individuals (unadhered) %: 0.0%
  wall surface-adhered individuals %: 25.0%
  bottom surface-adhered individuals No.: 9
  bottom surface-crawling individuals No.: 0
  overturned individuals or closed shell individuals (unadhered) No.: 0
  wall surface-adhered individuals No.: 3
[4]; 3 µg/mL (30 µg), control group 118
  number of byssal threads on the bottom surface: 72
[4]; 10 µg/mL (100 µg)
  bottom surface-adhered individuals %: 100.0%
  bottom surface-crawling individuals %: 0.0%
  number of byssal threads on the bottom surface: 45
  overturned individuals or closed shell individuals (unadhered) %: 0.0%
  wall surface-adhered individuals %: 0.0%
  bottom surface-adhered individuals No.: 12
  bottom surface-crawling individuals No.: 0
  overturned individuals or closed shell individuals (unadhered) No.: 0
  wall surface-adhered individuals No.: 0
[4]; [15]
  antifouling effect (overall determination in words): no antifouling effect
[5]
  antifouling action (in words): antifouling actions
[5]; listed as synthetic Dolastatin 16
  antifouling action (in words): equivalent to that of the natural Dolastatin 16
[6]
  growth-inhibiting effect (in words): growth-inhibiting effect
[7]
  growth-inhibiting effect (in words): growth-inhibiting effect
[8]
  growth-inhibiting effect (in words): growth-inhibiting effect

## CC(C)(C)OC(=O)N1CCC[C@H]1C(=O)N[C@@H](CC(=O)OCc1ccccc1)c1ccccc1 [dipeptide 14]
[1]; [10]
  Antifouling activity 48h EC50: 3.2 mg/L
[1]; [13]
  Antifouling activity 48h EC50: 3.18 mg/L
  Toxicity 48h LC50: >10 mg/L

## CC(C)[C@@H](NC(=O)[C@@H]1CCCN1C(=O)[C@@H](NC(=O)OC(C)(C)C)[C@H](C)Cc1ccccc1)[C@@H](C)C(=O)OCc1ccccc1 [Boc-3]
[9]
  Toxicity 48h LC50: >10 mg/L
